# Target: SARS2 M^pro (Severe acute respiratory syndrome coronavirus 2, UniProt P0DTD1, P3395H)
# Type: biochemical, SARS-CoV-2
row,SMILES,% inhibition (20 µM) biochemical [%]
1,"CCOc1ccccc1N1C(=O)CC(Sc2nnc(-c3ccccc3)[nH]2)C1=O (stereo not shown) [MWAC-0001798, CCOc1ccccc1N2C(=O)CC(Sc3nnc([nH]3)c4ccccc4)C2=O]",2.63
2,"CN1C(=O)C(=Cc2cc(O)ccc2Br)C(=O)N(C)C1=O [MWAC-0001799, CN1C(=O)N(C)C(=O)C(=Cc2cc(O)ccc2Br)C1=O]",5.42
3,"O=[N+]([O-])c1cc(C(F)(F)F)ccc1NCCNS(=O)(=O)Cc1ccccc1 [MWAC-0001800, [O-][N+](=O)c1cc(ccc1NCCNS(=O)(=O)Cc2ccccc2)C(F)(F)F]",3.51
4,"COc1cc(OC)cc(C(=O)Nc2ccc(OC(C)C)cc2)c1 [MWAC-0001801, COc1cc(OC)cc(c1)C(=O)Nc2ccc(OC(C)C)cc2]",5
5,"O=C1/C(=C/c2ccc(F)cc2)SC(=S)N1Cc1cccnc1 [MWAC-0001802, Fc1ccc(\C=C\2/SC(=S)N(Cc3cccnc3)C2=O)cc1]",7
6,"CC(=O)Nc1ccc(OS(=O)(=O)c2ccc(Cl)c3ccccc23)cc1 [MWAC-0001803, CC(=O)Nc1ccc(OS(=O)(=O)c2ccc(Cl)c3ccccc23)cc1]",1.42
7,"Cc1ccccc1C(=O)Nc1ccc(Br)cc1 [MWAC-0001804, Cc1ccccc1C(=O)Nc2ccc(Br)cc2]",2.44
8,"O=C(Nc1nc2ccccc2[nH]1)c1ccc(Br)o1 [MWAC-0001805, Brc1oc(cc1)C(=O)Nc2nc3ccccc3[nH]2]",9
9,"COc1ccc(C(=O)Nc2ccccc2N)cc1 [MWAC-0001806, COc1ccc(cc1)C(=O)Nc2ccccc2N]",1
10,"COc1ccc(CC(=O)NCc2ccccc2Cl)cc1 [MWAC-0001807, COc1ccc(CC(=O)NCc2ccccc2Cl)cc1]",1
11,"O=C(Nc1cc([N+](=O)[O-])ccc1F)c1cccc(F)c1 [MWAC-0001808, [O-][N+](=O)c1ccc(F)c(NC(=O)c2cccc(F)c2)c1]",1.53
12,"CC(=O)C1=C(O)C(=O)N(c2ccc(Br)cn2)C1c1ccc(Cl)cc1 (stereo not shown) [MWAC-0001809, CC(=O)C1=C(O)C(=O)N(C1c2ccc(Cl)cc2)c3ccc(Br)cn3]",16
13,"Cc1ccccc1OCCOc1ccccc1/C=N/n1cnnc1 [MWAC-0001810, Cc1ccccc1OCCOc2ccccc2\C=N\n3cnnc3]",5
14,"CCOc1ccc(/C=C2\SC(Nc3ccccc3O)=NC2=O)cc1 [MWAC-0001811, CCOc1ccc(\C=C\2/SC(=NC2=O)Nc3ccccc3O)cc1]",5.42
15,"CCc1c(C)sc(NC(=O)CCc2ccccc2)c1C(N)=O [MWAC-0001812, CCc1c(C)sc(NC(=O)CCc2ccccc2)c1C(=O)N]",4
16,"O=C1NC(=S)NC(=O)C1=Cc1ccccc1OS(=O)(=O)c1ccc2ccccc2c1 [MWAC-0001813, O=C1NC(=S)NC(=O)C1=Cc2ccccc2OS(=O)(=O)c3ccc4ccccc4c3]",4.38
17,"O=C(Nc1ccccc1O)c1ccc(Cl)c([N+](=O)[O-])c1 [MWAC-0001814, Oc1ccccc1NC(=O)c2ccc(Cl)c(c2)[N+](=O)[O-]]",2.59
18,"Nc1c(C(=O)c2ccccc2)sc2nc3c(cc12)CCC3 [MWAC-0001815, Nc1c(sc2nc3CCCc3cc12)C(=O)c4ccccc4]",27
19,"O=C1/C(=C/c2cccnc2)SC(=S)N1Cc1cccnc1 [MWAC-0001816, O=C1N(Cc2cccnc2)C(=S)S/C/1=C\c3cccnc3]",43
20,"Cc1cc(C(=O)CCl)c(C)n1Cc1ccco1 [MWAC-0001817, Cc1cc(C(=O)CCl)c(C)n1Cc2occc2]",62
21,"Cc1ccc(Cn2cc(SCC(=O)NCc3ccco3)c3ccccc32)cc1 [MWAC-0001818, Cc1ccc(Cn2cc(SCC(=O)NCc3occc3)c4ccccc24)cc1]",3.38
22,"COc1ccc(C2=NN3C(C2)c2ccccc2OC32C(=O)Nc3ccccc32)cc1OC (stereo not shown) [MWAC-0001819, COc1ccc(cc1OC)C2=NN3C(C2)c4ccccc4OC35C(=O)Nc6ccccc56]",0.611
23,"Cc1ccc(NC(=S)Nc2ccccc2)nc1 [MWAC-0001820, Cc1ccc(NC(=S)Nc2ccccc2)nc1]",2.27
24,"Cc1ccc2nc(N3C(=O)C(O)=C(C(=O)c4ccco4)C3c3ccco3)sc2c1 (stereo not shown) [MWAC-0001821, Cc1ccc2nc(sc2c1)N3C(C(=C(O)C3=O)C(=O)c4occc4)c5occc5]",16
25,"COCCNc1nc2cc(C)ccc2[nH]1 [MWAC-0001822, COCCNc1nc2cc(C)ccc2[nH]1]",3
26,"COc1ccccc1N1CCN(C(=O)CCl)CC1 [MWAC-0001823, COc1ccccc1N2CCN(CC2)C(=O)CCl]",98
27,"COc1cc(CSc2nnc[nH]2)c(OC)cc1CSc1nnc[nH]1 [MWAC-0001824, COc1cc(CSc2nnc[nH]2)c(OC)cc1CSc3nnc[nH]3]",0
28,"Cc1cc(C(=O)CCl)c(C)n1CCc1cccs1 [MWAC-0001825, Cc1cc(C(=O)CCl)c(C)n1CCc2cccs2]",56

row,SMILES,% inhibition (20 µM) biochemical [%]
1,"COCCCNC(=O)/C(C#N)=C/c1cc(C)n(-c2ccc(F)cc2)c1C [MWAC-0001826, COCCCNC(=O)\C(=C\c1cc(C)n(c1C)c2ccc(F)cc2)\C#N]",5
2,"Cc1ccc(OCCN2C(=O)C(=O)c3ccccc32)cc1 [MWAC-0001827, Cc1ccc(OCCN2C(=O)C(=O)c3ccccc23)cc1]",4.54
3,"N#C/C(=C\c1c[nH]c2ccccc12)C(=O)NC1CC1 [MWAC-0001828, O=C(NC1CC1)\C(=C\c2c[nH]c3ccccc23)\C#N]",11
4,"Cc1ccc2nc(NC(=O)c3ccc(S(C)(=O)=O)c([N+](=O)[O-])c3)sc2c1 [MWAC-0001829, Cc1ccc2nc(NC(=O)c3ccc(c(c3)[N+](=O)[O-])S(=O)(=O)C)sc2c1]",64
5,"CCCOc1ccc(CN2C(=O)C(=O)c3ccccc32)cc1 [MWAC-0001830, CCCOc1ccc(CN2C(=O)C(=O)c3ccccc23)cc1]",5
6,"CCOC(=O)/C=C(\C)N1N=C(c2ccccc2)CC1c1ccc(N(C)C)cc1 (stereo not shown) [MWAC-0001831, CCOC(=O)\C=C(/C)\N1N=C(CC1c2ccc(cc2)N(C)C)c3ccccc3]",5.67
7,"COc1ccc(OC)c(C(=O)c2oc3ccccc3c2NC(=O)CCl)c1 [MWAC-0001832, COc1ccc(OC)c(c1)C(=O)c2oc3ccccc3c2NC(=O)CCl]",85
8,"O=C1OC(NC(=O)c2ccccc2)C(NC(=O)c2ccccc2)=C1Cl (stereo not shown) [MWAC-0001833, ClC1=C(NC(=O)c2ccccc2)C(NC(=O)c3ccccc3)OC1=O]",4
9,"COc1ccc(OC)c(NC(=O)CSc2nc3cc4c(cc3cc2C#N)OCCO4)c1 [MWAC-0001834, COc1ccc(OC)c(NC(=O)CSc2nc3cc4OCCOc4cc3cc2C#N)c1]",5.66
10,"Nc1ncnc(N)c1N=Nc1ccccc1 [MWAC-0001835, Nc1ncnc(N)c1N=Nc2ccccc2]",6.65
11,"Nc1ccc(C(=O)Nc2ccccc2N)cc1 [MWAC-0001836, Nc1ccc(cc1)C(=O)Nc2ccccc2N]",5
12,"Cc1cc(C(=O)COn2nnc3ccc(Cl)cc32)c(C)n1-c1ccc2c(c1)OCO2 [MWAC-0001837, Cc1cc(C(=O)COn2nnc3ccc(Cl)cc23)c(C)n1c4ccc5OCOc5c4]",26
13,"Cc1ccc2nc(-c3ccc(SCC(=O)Nc4nc(C)cs4)nc3)[nH]c2c1 [MWAC-0001838, Cc1ccc2nc([nH]c2c1)c3ccc(SCC(=O)Nc4nc(C)cs4)nc3]",2.56
14,"O=C(CCC(=O)Nc1ccc2c(c1)OCCO2)Nc1ccc(OCc2ccccc2)cc1 [MWAC-0001840, O=C(CCC(=O)Nc1ccc2OCCOc2c1)Nc3ccc(OCc4ccccc4)cc3]",3
15,"COc1ccc(CC(=O)N2CCC3(CC2)NC(=O)c2cc(Br)ccc2N3)cc1 [MWAC-0001841, COc1ccc(CC(=O)N2CCC3(CC2)NC(=O)c4cc(Br)ccc4N3)cc1]",0
16,"O=Cc1ccccc1OCc1ccc2c(c1)OCO2 [MWAC-0001842, O=Cc1ccccc1OCc2ccc3OCOc3c2]",11
17,"CCOC(=O)C(=O)Nc1sc(C(=O)Nc2cccc(Cl)c2)c(C)c1C(=O)OC [MWAC-0001843, CCOC(=O)C(=O)Nc1sc(C(=O)Nc2cccc(Cl)c2)c(C)c1C(=O)OC]",5.71
18,"CCOc1ccccc1OCC(=O)N/N=C/c1cc(C)ccc1O [MWAC-0001844, CCOc1ccccc1OCC(=O)N\N=C\c2cc(C)ccc2O]",21
19,"Cc1cc(C(=O)COn2nnc3ccccc32)c(C)n1-c1ccc2c(c1)OCO2 [MWAC-0001845, Cc1cc(C(=O)COn2nnc3ccccc23)c(C)n1c4ccc5OCOc5c4]",20
20,"COc1ccc(C(=O)NNC(=O)Cc2ccc(-c3ccccc3)cc2)cc1 [MWAC-0001846, COc1ccc(cc1)C(=O)NNC(=O)Cc2ccc(cc2)c3ccccc3]",0.595
21,"O=C(CN1C(=O)C(=O)N(Cc2ccccc2)C1=O)Nc1cc(Cl)cc(Cl)c1 [MWAC-0001847, Clc1cc(Cl)cc(NC(=O)CN2C(=O)N(Cc3ccccc3)C(=O)C2=O)c1]",0.75
22,"O=C(CCl)Nc1cn(-c2ccccc2)nc1-c1ccc(F)cc1 [MWAC-0001848, Fc1ccc(cc1)c2nn(cc2NC(=O)CCl)c3ccccc3]",13
23,"COc1ccc(C(CNC(=O)CCl)N2CCCCC2)cc1 (stereo not shown) [MWAC-0001849, COc1ccc(cc1)C(CNC(=O)CCl)N2CCCCC2]",33
24,"COC(=O)c1c(NC(=O)CCl)sc(C(=O)N2CCOCC2)c1C [MWAC-0001850, COC(=O)c1c(C)c(sc1NC(=O)CCl)C(=O)N2CCOCC2]",74
25,"CCc1cccc2c(/C=C3\C(=O)Nc4ccccc43)c[nH]c12 [MWAC-0001851, CCc1cccc2c(\C=C\3/C(=O)Nc4ccccc34)c[nH]c12]",2.36
26,"CCOC(=O)c1sc(NC(=O)c2sccc2C)cc1C [MWAC-0001852, CCOC(=O)c1sc(NC(=O)c2sccc2C)cc1C]",10
27,"CCOc1ccc(-c2nc(CSc3nnc(N)[nH]3)cs2)cc1 [MWAC-0001853, CCOc1ccc(cc1)c2nc(CSc3nnc(N)[nH]3)cs2]",1.25
